# Key:
# blood TNFα = assay: Effect on blood TNF-α concentration elevation by LPS stimulation; format: in vivo; settings: female BALB/c mice; 3 mg/kg intravenously 1 h before LPS 5 mg/kg i.p.; serum 1 h after LPS; vs control group
# Protocol: Various kinds of cytokines are produced in vivo accompanying inflammatory response and abnormal immunity or the like. Therefore, the action of test compound with respect to blood TNFα concentration rise was investigated using laboratory animals.
# Female BALB/c mice (6 weeks old) were purchased, and, after preliminary rearing for about 1 week, the mice were divided into groups of four animals. The test compound was dissolved in 10% captisol aqueous solution and was intravenously administered to the test group at a dose of 3 mg/kg. Solvent was administered to control group in the same way. LPS (5 mg/kg) was administered intraperitoneally to the test group and the control group one hour after the administration of the test compound or solvent, and blood was sampled one hour later. The serum was separated from the obtained blood, and the TNFα[…]concentration in the serum was measured using an assay kit made by R&D Systems Inc. The inhibition rates of the test group with respect to the control group are shown in Table 3.
# [1] = test system: oxaliplatin induced-neuropathic pain model mouse; assay: Analgesic action on oxaliplatin induced-neuropathic pain model mouse; format: in vivo; settings: C57BL/6N mice, 1 week after oxaliplatin 0.3 mg/kg i.p., mean ± standard error
# Protocol: Oxaliplatin was diluted with saline by the predetermined concentration, and administered intraperitoneally to mice (C57BL/6N, male, 8 weeks old) at 0.3 mg/kg. The test compound was dissolved in 10% captisol or 10% captisol containing 0.1% N-methyl-2-pyrrolidone. The compound was administered intravenously (0.1-10 mg/kg body weight) to the mice immediately before intraperitoneal administration of various anticancer drugs. The pain threshold was measured 1 week after oxaliplatin administration. The pain threshold was evaluated as a weighted value (gram) showing pseudo-escape reaction, when the footpad of the right hind limb was pressed using balance type pressurizing device (Ugo Basile). The values in the table show the mean±standard errors of the weighted values.
smiles,measurement,setting,value
"CCOC(=O)C1=CC2(CC[C@H]1S(=O)(=O)[C@H]1CCc3cccc(Cl)c31)O[C@H](CO)[C@@H](CO)O2 [Compound 6, Ethyl (2R,3R,8R)-8-(((1S)-7-chloro-2,3-dihydro-1H-inden-1-yl)sulfonyl)-2,3-bis(hydroxymethyl)-1,4-dioxaspiro[4.5]dec-6-ene-7-carboxylate]",Blood TNFα inhibition rate (% inhibition),blood TNFα,93.1 % inhibition
same,Pain threshold (weighted value showing pseudo-escape reaction),[1]; 1 mg/kg i.v.,190.0 ± 46.1 gram
same,Pain threshold (weighted value showing pseudo-escape reaction),[1]; 3 mg/kg i.v.,153.3 ± 46.1 gram
same,Pain threshold (weighted value showing pseudo-escape reaction),[1]; 10 mg/kg i.v.,310.0 ± 45.6 gram

# Reference: US9828357B2, “Cyclic compounds” (Takeda Pharmaceutical Company Limited, priority 2015, dated 2017)
